According to patent US20180118721A1, “PYRIMIDINE DERIVATIVES” (Merck Patent GmbH, priority 2015, published 2018):
Where two headings read alike, the source gives them in different places.

Columns and labels:
[1] = target: T1, purified human recombinant MTH1 (human MTH1, residues 42-197) (Homo sapiens, UniProt P36639); test: MTH1 enzymatic assay (luminescence-based, PPiLight); format: biochemical; settings: 6 μM 8-oxo-dGTP, Table 1, grouped
T1 construct: human MTH1, residues 42-197, Uniprot-ID: P36639, expressed in E. coli; made in house; host or cells: E. coli

[2] = target: T2, humanMTH1 (aminoacids 42 to 197) (Homo sapiens, UniProt P36639); test: Binding affinities and kinetics on MTH1 surfaces by surface plasmon resonance (SPR); settings: for Kd: SPR, Biacore4000, 25° C., Table 1, grouped, read-out: KD IC50; for residence time: on MTH1, calculated on the basis of the KD values
T2 construct: humanMTH1 (aminoacids 42 to 197); His tag at the N-terminus; purchased Abnova ab99390; host or cells: E. coli
Description: The SPR experiments were performed using a Biacore4000 instrument. […] HumanMTH1 was immobilized on Biacore CM5 chips at 25° C. and a flow rate of 10 μL/min using amine coupling at pH 5.5 and in presence of 1 μM MSC2567771B-1 according to Biacore's standard protocol. MTH1 was applied at a concentration of 10 μg/mL and depending on the duration of the injection time immobilization levels between 500 and 2,000 RU were obtained. Sample compounds were applied in form of titration series with a doubling of concentration at each subsequent injection. In general, 10 concentrations were injected covering a dilution range of 500 fold. Before and after each of these titration series the binding capability of the surface was controlled by the injection of the positive control S-Crizotinib at a fixed concentration of 2 μM. Kinetic titration experiments were performed at 25° C. with a flow rate of 30 μL/min, a sample contact time of 90 sec and a dissociation time of 420 sec in running buffer (20 mM Tris-HCl (Tris(hydroxymethyl)-aminomethane HCl) pH 7.40, 150 mM NaCl, 5 mM MgCl2, 1 mM DTT (dithiothreitol), 0.1 mM EGTA (ethylene glycol tetraacetic acid), 0.05% Tween 20) containing 2% DMSO (dimethyl sulfoxide). Buffer injections identical to the sample injections were executed at the beginning of the successive series for the purpose of double referencing. Solvent correction cycles (eight correction points, 1.4%-2.8% DMSO) were run at the same intervals. For surface conditioning ten start-up cycles (buffer injections) were run. Data points were collected at a sample rate of 10 Hz.
Data sets were processed and analyzed using the software Biacore4000 Evaluation, version 1.0. Solvent corrected and double-referenced association and dissociation phase data were fitted to a simple 1:1 interaction model with mass transport limitations.
Measured values are indicated as KD IC50 in the Table below.

Compound `C=CC(=O)Nc1ccc(CCNC(=O)C2CCN(c3cc(NC)nc(N)n3)CC2)cc1` [Example 113, 1-(2-Amino-6-methylamino-pyrimidin-4-yl)-piperidine-4-carboxylic acid [2-(4-acryloylamino-phenyl)-ethyl]-amide] has an IC50 [1] of 1 to 100 nM and a Kd [2] of 1 to 100 nM.
With `CNc1cc(N2C(=O)CCC2Cc2ccccc2)nc(N)n1` (centres unmarked) [Example 114, 1-(2-Amino-6-methylamino-pyrimidin-4-yl)-5-benzyl-pyrrolidin-2-one] the IC50 [1] was 1 to 100 nM and the Kd [2] was 1 to 100 nM.
Work on `CNc1cc(N2CC(Cc3ccccc3)CC2=O)nc(N)n1` (centres unmarked) [Example 115, 1-(2-Amino-6-methylamino-pyrimidin-4-yl)-4-benzyl-pyrrolidin-2-one] yielded an IC50 [1] of 1 to 100 nM and a Kd [2] of 1 to 100 nM.
In the case of `CNc1cc(N2CCCC[C@@H]2Cc2ccc(OC)cc2)nc(N)n1` [Example 116, 6-[(R)-2-(4-Methoxy-benzyl)-piperidin-1-yl]-N4-methyl-pyrimidine-2,4-diamine], the IC50 [1] is reported as < 1 nM and the residence time ([2]; read-out: Residence time) is reported as ≥ 10 min.
For `CNc1cc(N2CCCC[C@H]2Cc2ccc(OC)cc2)nc(N)n1` [Example 117, 6-[(S)-2-(4-Methoxy-benzyl)-piperidin-1-yl]-N4-methyl-pyrimidine-2,4-diamine], the IC50 [1] was < 1 nM and the Kd [2] was < 1 nM.
`C=CC(=O)Nc1ccc(CCNC(=O)C2CN(c3cc(NC)nc(N)n3)C2)cc1` [Example 118, 1-(2-Amino-6-methylamino-pyrimidin-4-yl)-azetidine-3-carboxylic acid [2-(4-acryloylamino-phenyl)-ethyl]-amide] showed an IC50 [1] of 1 to 100 nM and a Kd [2] of 1 to 100 nM.
With `CNc1cc(N2CCC(C(=O)NCCc3ccc(S(=O)(=O)F)cc3)CC2)nc(N)n1` [Example 120, 4-(2-{[1-(2-Amino-6-methylamino-pyrimidin-4-yl)-piperidine-4-carbonyl]-amino}-ethyl)-benzenesulfonyl fluoride] the IC50 [1] was < 1 nM and the residence time [2] was ≥ 10 min.
